The source made the active and inactive calls. The calls are words filed in the database; no cut-off is given here.
Key:
[1] = in vitro; details: mouse, BA/F3 cells
Description: Growth inhibition of mouse BA/F3 cells assessed as inhibition of cell growth incubated for 72 hrs by Cell-titer-Glo assay

[2] = biological target: T1, Vascular endothelial growth factor receptor 1 (Homo sapiens, UniProt P17948); experiment: Inhibition of human VEGFR1 using poly[Glu:Tyr] (4:1) substrate and [gamma-33P]-ATP by radiometric biochemical kinase assay
[3] = biological target: T1, Vascular endothelial growth factor receptor 1; experiment: Inhibition of human VEGFR1 assessed as enzyme residual activity at 10 uM using poly[Glu:Tyr] (4:1) substrate and [gamma-33P]-ATP by radiometric biochemical kinase assay relative to control
[4] = biological target: c-Kit (Mast/stem cell growth factor receptor Kit) (Homo sapiens, UniProt P10721); experiment: Inhibition of human c-Kit assessed as enzyme residual activity at 10 uM using poly[Glu:Tyr] (4:1) substrate and [gamma-33P]-ATP by radiometric biochemical kinase assay relative to control; details: probe poly[Glu:Tyr] (4:1), read-out: Activity
c-Kit (Mast/stem cell growth factor receptor Kit), sequence (P10721 whole entry): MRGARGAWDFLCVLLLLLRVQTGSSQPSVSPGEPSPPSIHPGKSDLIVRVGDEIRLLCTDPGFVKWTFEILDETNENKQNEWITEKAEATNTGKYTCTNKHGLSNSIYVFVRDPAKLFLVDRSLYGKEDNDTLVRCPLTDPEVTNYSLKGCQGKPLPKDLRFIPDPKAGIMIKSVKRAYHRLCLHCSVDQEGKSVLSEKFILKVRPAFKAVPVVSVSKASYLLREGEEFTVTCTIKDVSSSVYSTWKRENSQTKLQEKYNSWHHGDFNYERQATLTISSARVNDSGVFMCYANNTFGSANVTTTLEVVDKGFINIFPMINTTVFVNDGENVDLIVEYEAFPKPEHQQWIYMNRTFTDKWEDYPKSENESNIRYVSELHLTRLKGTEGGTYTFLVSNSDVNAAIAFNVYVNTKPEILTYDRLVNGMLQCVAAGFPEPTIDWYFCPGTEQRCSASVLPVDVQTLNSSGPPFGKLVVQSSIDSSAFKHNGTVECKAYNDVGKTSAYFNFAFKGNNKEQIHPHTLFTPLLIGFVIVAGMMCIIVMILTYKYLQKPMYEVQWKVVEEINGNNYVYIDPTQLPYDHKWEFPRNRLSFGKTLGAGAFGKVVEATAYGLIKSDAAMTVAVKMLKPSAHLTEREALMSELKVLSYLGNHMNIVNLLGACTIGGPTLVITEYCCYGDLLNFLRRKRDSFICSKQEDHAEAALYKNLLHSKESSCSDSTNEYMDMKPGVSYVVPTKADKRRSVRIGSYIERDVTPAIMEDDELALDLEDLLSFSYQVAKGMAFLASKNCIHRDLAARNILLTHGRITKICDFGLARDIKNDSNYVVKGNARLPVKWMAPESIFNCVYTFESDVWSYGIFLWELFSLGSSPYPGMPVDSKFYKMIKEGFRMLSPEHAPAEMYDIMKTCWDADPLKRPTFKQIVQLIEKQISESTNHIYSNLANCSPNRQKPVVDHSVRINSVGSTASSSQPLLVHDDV

[5] = species on record: Homo sapiens; experiment: Anti-lymphangiogenic activity in HDLEC assessed as reduction in human A375 cells-induced lymphatic sprouting at 1 to 10 uM incubated for 4 days by Hoechst 33342 and phalloidin staining based microfluidic platform assay relative to control; assay type: functional, cell-based
[6] = species on record: Homo sapiens; experiment: Anti-lymphangiogenic activity in HDLEC assessed as reduction in human MIAPaCa-2 cells-induced lymphatic sprouting at 1 to 10 uM incubated for 4 days by Hoechst 33342 and phalloidin staining based microfluidic platform assay relative to control; assay type: functional, cell-based
[7] = test system: HUVEC; experiment: Anti-angiogenesis activity in HUVEC assessed as inhibition of VEGF-A-induced cell migration at 0.1 uM incubated for 12 hrs by wound healing assay; assay type: functional, cell-based; details: Homo sapiens
[8] = test system: HUVEC; experiment: Anti-angiogenesis activity in HUVEC assessed as inhibition of VEGF-A-induced tube formation at 0.1 uM incubated for 6 hrs by tube formation assay; assay type: functional, cell-based; details: Homo sapiens
[9] = test system: Mus musculus; experiment: Anti-lymphangiogenic activity in C57BL/6 mouse assessed as suppression of suture-induced corneal lymphangiogenesis at 200 nM administered topically every 12 hrs for 7 days by immunohistochemical analysis; assay type: functional, organism-based
[10] = test system: Mus musculus; experiment: Anti-angiogenesis activity in C57BL/6 mouse assessed as suppression of suture-induced corneal angiogenesis at 200 nM administered topically every 12 hrs for 7 days by immunohistochemical analysis; assay type: functional, organism-based
[11] = Toxicity in C57BL/6 mouse assessed as induction of clinically detectable corneal-epitheliopathy at 200 nM administered topically every 12 hrs for 7 days by immunohistochemical analysis; details: in vivo, topical_or_ocular, 0.2 µM
[12] = test system: HUVEC; experiment: Anti-angiogenesis activity in truncated-FOSB transfected HUVEC cells model of pseudomyogenic-hemangioendothelioma assessed as inhibition of tube formation; assay type: functional, cell-based; details: Homo sapiens
[13] = test system: HUVEC; experiment: Anti-angiogenesis activity in truncated-FOSB transfected HUVEC cells model of pseudomyogenic-hemangioendothelioma assessed as inhibition of cell proliferation; assay type: functional, cell-based; details: Homo sapiens
[14] = biological target: Mast/stem cell growth factor receptor Kit (Homo sapiens, UniProt P10721); experiment: Inhibition of c-Kit phosphorylation in human TF1 cells assessed as at 0.1 to 0.3 uM incubated for 2 hrs by Western blot analysis; assay type: cell-based
Mast/stem cell growth factor receptor Kit, sequence (P10721 whole entry): as above

[15] = test system: MOLM-14; experiment: Induction of apoptosis in human MOLM14 cells at 0.1 uM incubated for 24 hrs by propidium iodide and annexin-V staining based flow cytometry; assay type: functional, cell-based
[16] = test system: MV4-11; experiment: Induction of apoptosis in human MV4-11 cells at 0.1 uM incubated for 24 hrs by propidium iodide and annexin-V staining based flow cytometry; assay type: functional, cell-based
[17] = test system: MOLM-14; experiment: Induction of apoptosis in human MOLM14 cells assessed as induction of PARP cleavage at 0.1 to 1 uM incubated for 24 hrs by Western blot analysis; assay type: functional, cell-based
[18] = test system: MOLM-14; experiment: Induction of apoptosis in human MOLM14 cells assessed as induction of caspase-3 cleavage at 0.1 to 1 uM incubated for 24 hrs by Western blot analysis; assay type: functional, cell-based
[19] = test system: MV4-11; experiment: Induction of apoptosis in human MV4-11 cells assessed as induction of PARP cleavage at 0.1 to 1 uM incubated for 24 hrs by Western blot analysis; assay type: functional, cell-based
[20] = test system: MV4-11; experiment: Induction of apoptosis in human MV4-11 cells assessed as induction of caspase-3 cleavage at 0.1 to 1 uM incubated for 24 hrs by Western blot analysis; assay type: functional, cell-based
[21] = biological target: T2, Vascular endothelial growth factor receptor 2 (Homo sapiens, UniProt P35968)
T2 sequence (P35968 whole entry): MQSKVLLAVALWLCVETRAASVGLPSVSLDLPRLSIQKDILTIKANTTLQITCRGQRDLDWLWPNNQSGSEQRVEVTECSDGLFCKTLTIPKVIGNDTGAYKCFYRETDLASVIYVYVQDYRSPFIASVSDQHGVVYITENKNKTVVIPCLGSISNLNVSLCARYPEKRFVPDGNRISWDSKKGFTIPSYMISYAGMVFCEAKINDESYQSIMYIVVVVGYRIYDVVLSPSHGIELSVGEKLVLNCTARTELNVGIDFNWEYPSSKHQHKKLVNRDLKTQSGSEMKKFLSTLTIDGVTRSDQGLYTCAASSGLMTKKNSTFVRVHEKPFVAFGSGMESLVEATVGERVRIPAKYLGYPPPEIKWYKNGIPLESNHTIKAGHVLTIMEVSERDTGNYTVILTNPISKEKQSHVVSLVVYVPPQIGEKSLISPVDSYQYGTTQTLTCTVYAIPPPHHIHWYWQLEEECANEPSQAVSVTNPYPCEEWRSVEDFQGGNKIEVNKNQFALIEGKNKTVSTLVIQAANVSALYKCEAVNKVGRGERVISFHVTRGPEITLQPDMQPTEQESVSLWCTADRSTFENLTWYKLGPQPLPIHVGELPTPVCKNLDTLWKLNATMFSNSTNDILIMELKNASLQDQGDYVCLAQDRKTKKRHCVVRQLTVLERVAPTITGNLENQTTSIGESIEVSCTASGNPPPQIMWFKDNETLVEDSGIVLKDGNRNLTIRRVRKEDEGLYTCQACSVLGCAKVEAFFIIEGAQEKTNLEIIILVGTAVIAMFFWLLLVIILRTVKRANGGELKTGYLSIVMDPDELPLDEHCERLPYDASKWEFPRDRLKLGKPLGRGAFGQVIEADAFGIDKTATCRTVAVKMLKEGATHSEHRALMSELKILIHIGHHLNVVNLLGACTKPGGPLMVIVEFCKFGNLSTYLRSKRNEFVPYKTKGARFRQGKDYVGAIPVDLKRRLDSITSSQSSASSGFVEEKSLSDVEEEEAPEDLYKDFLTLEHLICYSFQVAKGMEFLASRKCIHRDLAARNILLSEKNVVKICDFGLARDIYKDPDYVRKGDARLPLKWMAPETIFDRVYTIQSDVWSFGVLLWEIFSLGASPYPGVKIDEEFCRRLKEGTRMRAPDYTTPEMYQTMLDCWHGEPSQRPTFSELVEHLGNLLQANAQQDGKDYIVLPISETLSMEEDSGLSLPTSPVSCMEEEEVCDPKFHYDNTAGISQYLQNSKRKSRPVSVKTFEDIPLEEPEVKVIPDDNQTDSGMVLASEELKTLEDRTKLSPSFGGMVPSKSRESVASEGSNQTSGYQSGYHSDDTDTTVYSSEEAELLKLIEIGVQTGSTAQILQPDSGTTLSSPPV
Description: Inhibition of human VEGFR2 using poly[Glu:Tyr] (4:1) substrate and [gamma-33P]-ATP by radiometric biochemical kinase assay

[22] = biological target: T3, Vascular endothelial growth factor receptor 3 (Homo sapiens, UniProt P35916)
T3 sequence (P35916 whole entry): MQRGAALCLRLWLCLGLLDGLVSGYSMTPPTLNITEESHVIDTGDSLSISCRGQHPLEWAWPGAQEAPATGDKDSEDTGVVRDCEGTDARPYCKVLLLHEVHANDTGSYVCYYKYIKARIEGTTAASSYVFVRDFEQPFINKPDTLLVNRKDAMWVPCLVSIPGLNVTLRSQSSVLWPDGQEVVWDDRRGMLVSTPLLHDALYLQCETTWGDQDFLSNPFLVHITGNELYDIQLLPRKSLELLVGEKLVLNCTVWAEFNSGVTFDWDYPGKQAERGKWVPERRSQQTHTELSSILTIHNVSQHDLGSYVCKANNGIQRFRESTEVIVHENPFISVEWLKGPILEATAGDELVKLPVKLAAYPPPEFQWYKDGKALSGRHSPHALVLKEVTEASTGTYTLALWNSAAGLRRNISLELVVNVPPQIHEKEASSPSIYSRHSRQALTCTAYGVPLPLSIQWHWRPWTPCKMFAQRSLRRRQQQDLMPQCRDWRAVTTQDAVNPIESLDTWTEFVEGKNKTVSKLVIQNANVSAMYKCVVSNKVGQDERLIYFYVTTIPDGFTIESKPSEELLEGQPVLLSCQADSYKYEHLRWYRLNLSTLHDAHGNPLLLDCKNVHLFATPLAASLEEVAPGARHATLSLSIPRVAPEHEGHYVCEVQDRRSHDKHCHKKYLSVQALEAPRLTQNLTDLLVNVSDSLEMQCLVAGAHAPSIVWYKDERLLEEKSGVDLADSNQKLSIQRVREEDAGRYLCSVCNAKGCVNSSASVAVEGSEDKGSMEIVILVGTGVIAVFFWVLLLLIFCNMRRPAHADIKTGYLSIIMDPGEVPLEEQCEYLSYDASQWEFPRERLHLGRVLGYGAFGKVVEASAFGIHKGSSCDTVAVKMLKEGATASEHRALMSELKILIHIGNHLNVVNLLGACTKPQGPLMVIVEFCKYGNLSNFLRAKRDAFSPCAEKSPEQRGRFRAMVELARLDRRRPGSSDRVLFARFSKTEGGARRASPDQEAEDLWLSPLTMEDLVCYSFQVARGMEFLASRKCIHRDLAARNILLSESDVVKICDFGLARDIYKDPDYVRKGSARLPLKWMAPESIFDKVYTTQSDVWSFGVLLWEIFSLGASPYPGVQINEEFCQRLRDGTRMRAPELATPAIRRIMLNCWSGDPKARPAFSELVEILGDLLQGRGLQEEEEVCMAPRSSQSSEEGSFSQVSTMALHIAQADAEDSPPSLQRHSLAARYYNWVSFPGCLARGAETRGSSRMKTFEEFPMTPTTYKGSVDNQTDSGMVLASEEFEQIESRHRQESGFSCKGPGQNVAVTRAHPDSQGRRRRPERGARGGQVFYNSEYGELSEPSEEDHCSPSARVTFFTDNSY
Description: Inhibition of human VEGFR3 using poly[Glu:Tyr] (4:1) substrate and [gamma-33P]-ATP by radiometric biochemical kinase assay

[23] = biological target: T2, Vascular endothelial growth factor receptor 2; remark: listed apart in the source
Description: Inhibition of TEL-fused VEGFR2 (unknown origin) expressed in mouse BA/F3 cells assessed as inhibition of cell growth incubated for 72 hrs by Cell-titer-Glo assay

[24] = biological target: T3, Vascular endothelial growth factor receptor 3; remark: listed apart in the source
Description: Inhibition of TEL-fused VEGFR3 (unknown origin) expressed in mouse BA/F3 cells assessed as inhibition of cell growth incubated for 72 hrs by Cell-titer-Glo assay

[25] = biological target: T4, Receptor-type tyrosine-protein kinase FLT3 (Homo sapiens, UniProt P36888)
T4 sequence (P36888 whole entry): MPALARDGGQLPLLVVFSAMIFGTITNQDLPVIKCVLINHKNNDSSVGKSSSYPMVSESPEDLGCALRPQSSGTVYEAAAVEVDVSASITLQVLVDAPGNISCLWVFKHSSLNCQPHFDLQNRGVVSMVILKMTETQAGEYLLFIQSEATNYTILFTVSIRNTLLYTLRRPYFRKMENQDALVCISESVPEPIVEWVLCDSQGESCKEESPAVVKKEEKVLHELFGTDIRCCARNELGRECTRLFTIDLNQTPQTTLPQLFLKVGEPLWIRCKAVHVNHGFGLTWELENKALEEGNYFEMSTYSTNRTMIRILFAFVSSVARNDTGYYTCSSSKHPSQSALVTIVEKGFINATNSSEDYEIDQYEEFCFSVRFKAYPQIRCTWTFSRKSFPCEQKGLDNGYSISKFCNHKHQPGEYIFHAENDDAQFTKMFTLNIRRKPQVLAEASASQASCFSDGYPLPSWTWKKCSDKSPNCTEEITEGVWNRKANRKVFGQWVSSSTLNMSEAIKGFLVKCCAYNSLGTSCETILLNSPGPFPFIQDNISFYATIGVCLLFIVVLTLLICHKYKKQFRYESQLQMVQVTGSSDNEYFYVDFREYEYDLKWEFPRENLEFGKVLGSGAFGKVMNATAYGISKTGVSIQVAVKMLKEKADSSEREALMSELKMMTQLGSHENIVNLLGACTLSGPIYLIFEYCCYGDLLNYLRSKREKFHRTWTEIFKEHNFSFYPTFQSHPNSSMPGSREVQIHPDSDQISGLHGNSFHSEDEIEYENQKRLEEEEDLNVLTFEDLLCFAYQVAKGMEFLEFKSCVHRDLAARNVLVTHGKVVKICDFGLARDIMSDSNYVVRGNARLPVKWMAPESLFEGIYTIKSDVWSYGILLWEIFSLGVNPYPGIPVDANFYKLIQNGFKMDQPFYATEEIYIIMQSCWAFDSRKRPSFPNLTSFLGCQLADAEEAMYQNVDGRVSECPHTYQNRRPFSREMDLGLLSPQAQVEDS

[26] = species on record: Homo sapiens; experiment: Anti-lymphangiogenic activity in HDLEC assessed as reduction in growth factor cocktail-induced lymphatic sprouting at 10 uM incubated for 4 days by Hoechst 33342 and phalloidin staining based microfluidic platform assay relative to control; assay type: functional
[27] = test system: HUVEC; experiment: Anti-angiogenesis activity in truncated-FOSB transfected HUVEC cells model of pseudomyogenic-hemangioendothelioma assessed as inhibition of tube formation up to 5 uM; assay type: functional, cell-based; details: Homo sapiens
[28] = biological target: Receptor-type tyrosine-protein kinase FLT3 (Homo sapiens) (UniProt P36888)
Description: Inhibition of TEL-fused FLT3 (unknown origin) expressed in mouse BA/F3 cells assessed as inhibition of cell growth incubated for 72 hrs by Cell-titer-Glo assay

T1 sequence (P17948 whole entry): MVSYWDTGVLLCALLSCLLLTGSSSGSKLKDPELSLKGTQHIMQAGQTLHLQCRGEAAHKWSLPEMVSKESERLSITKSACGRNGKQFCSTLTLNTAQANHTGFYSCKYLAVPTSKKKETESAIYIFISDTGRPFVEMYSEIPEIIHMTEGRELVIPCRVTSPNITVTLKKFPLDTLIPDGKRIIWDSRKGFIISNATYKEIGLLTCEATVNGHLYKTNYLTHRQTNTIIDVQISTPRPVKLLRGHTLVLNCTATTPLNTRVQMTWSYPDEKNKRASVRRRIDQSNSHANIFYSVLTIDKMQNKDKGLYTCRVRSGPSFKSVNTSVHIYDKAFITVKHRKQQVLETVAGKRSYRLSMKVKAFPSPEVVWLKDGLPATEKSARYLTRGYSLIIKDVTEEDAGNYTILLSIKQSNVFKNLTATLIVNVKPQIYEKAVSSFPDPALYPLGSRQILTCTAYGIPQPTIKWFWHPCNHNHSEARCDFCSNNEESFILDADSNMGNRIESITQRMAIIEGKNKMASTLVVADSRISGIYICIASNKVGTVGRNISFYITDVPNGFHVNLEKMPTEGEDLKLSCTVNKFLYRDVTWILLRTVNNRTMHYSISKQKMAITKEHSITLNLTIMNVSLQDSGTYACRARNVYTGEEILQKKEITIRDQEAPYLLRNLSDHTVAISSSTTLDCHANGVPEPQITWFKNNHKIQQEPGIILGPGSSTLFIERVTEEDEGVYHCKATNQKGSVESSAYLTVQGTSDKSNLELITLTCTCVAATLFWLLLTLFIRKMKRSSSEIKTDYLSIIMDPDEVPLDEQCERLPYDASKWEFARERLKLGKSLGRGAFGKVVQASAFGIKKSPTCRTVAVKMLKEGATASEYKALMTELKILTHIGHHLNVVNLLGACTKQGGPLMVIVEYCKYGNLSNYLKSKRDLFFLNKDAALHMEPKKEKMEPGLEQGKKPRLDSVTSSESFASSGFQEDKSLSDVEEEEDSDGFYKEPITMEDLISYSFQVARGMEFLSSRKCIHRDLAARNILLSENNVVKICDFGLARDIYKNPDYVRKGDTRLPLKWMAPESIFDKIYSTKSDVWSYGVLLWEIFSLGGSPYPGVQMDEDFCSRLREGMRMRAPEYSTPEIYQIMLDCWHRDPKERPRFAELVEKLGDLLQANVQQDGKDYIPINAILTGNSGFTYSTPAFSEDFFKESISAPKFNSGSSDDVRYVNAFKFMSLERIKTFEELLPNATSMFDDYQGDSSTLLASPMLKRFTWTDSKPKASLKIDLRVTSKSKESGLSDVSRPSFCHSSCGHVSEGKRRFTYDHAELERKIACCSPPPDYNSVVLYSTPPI

COc1cc(O)c2c(c1)-c1cccc(c1)[C@@H](O)[C@H](O)[C@H](O)/C=C\C[C@H](C)OC2=O
GI50 at 72 h [1]: > 25 µM

COc1cc(O)c2c(c1)-c1cccc(c1)[C@@H](O)[C@H](O)C(=O)CCC[C@H](C)OC2=O
GI50 at 72 h [1]: > 25 µM

COc1cc(O)c2c(c1)-c1cccc(c1)CCC(=O)/C=C\C[C@H](C)OC2=O
GI50 at 72 h [1]: > 25 µM

COc1cc(O)c2c(c1)-c1cccc(c1)[C@@H](O)[C@H](O)C(=O)/C=C\C[C@H](C)OC2=O
IC50 [2]: 0.845 µM
Activity [3]: 36.6%
activity at 10 µM [4]: 82.2%
Activity [5]: Active
Activity [6]: Active
inhibition [7]: Active
inhibition [8]: Active
Activity [9]: Active
Activity [10]: Active
Activity [11]: Non-Toxic
Activity [12]: Dose-dependent effect
Activity [13]: Dose-dependent effect
inhibition (INH) [14]: Not Active
Activity [15]: Active
Activity [16]: Active
Activity [17]: Active
Activity [18]: Active
Activity [19]: Active
Activity [20]: Active
GI50 at 72 h [1]: 10 µM

C=C1/C=C\C[C@H](C)OC(=O)c2c(O)cc(OC)cc2-c2cccc(c2)[C@@H](O)[C@@H]1O
IC50 [21]: > 10 µM
IC50 [22]: > 10 µM
GI50 [23]: > 25 µM
GI50 [24]: > 25 µM
GI50 at 72 h [1]: > 25 µM

COc1cc(O)c2c(c1)-c1cccc(c1)[C@H](O)[C@@H](O)C(=O)/C=C\C[C@H](C)OC2=O
GI50 at 72 h [1]: 17 µM

CCn1c(N)c(C(=O)NC)c(=O)c2ccc(C#C[C@@](C)(O)COC)nc21
IC50 [25]: 0.29 µM
fold change (FC) [26]: 2
inhibition [7]: inactive
inhibition [8]: inactive
Activity [9]: Active
Activity [11]: Non-Toxic
Activity [27]: inactive
IC50 [21]: 0.067 µM
IC50 [22]: 0.0012 µM
GI50 [23]: 4.6 µM
GI50 [24]: 0.059 µM
GI50 [28]: 18 µM
GI50 at 72 h [1]: > 25 µM

COc1cc(O)c2c(c1)-c1cccc(c1)[C@H](O)[C@H](O)C(=O)CCC[C@H](C)OC2=O
GI50 at 72 h [1]: > 25 µM

COc1cc(O)c2c(c1)-c1cccc(c1)[C@H](O)[C@@H](O)C(=O)CCC[C@H](C)OC2=O
GI50 at 72 h [1]: > 25 µM

COc1cc(O)c2c(c1)-c1cccc(c1)[C@@H](O)[C@H](O)C(=O)C/C=C/[C@H](C)OC2=O
GI50 at 72 h [1]: 11 µM

COc1cc(O)c2c(c1)CCC[C@H](O)[C@H](O)C(=O)/C=C\C[C@H](C)OC2=O
IC50 [25]: 0.0018 µM
IC50 [21]: 0.0029 µM
IC50 [22]: 0.00073 µM
GI50 [23]: 0.14 µM
GI50 [24]: 0.05 µM
GI50 [28]: 0.27 µM
GI50 at 72 h [1]: 1.7 µM

COc1cc(O)c2c(c1)-c1cccc(c1)[C@H](O)[C@H](O)C(=O)/C=C\C[C@H](C)OC2=O
GI50 at 72 h [1]: 12 µM

COc1cc(O)c2c(c1)-c1cccc(c1)[C@@H](O)[C@H](O)[C@@H](N)/C=C\C[C@H](C)OC2=O
IC50 [21]: > 10 µM
IC50 [22]: > 10 µM
GI50 [23]: > 25 µM
GI50 [24]: > 25 µM
GI50 [28]: > 25 µM
GI50 at 72 h [1]: > 25 µM

— ChEMBL document CHEMBL4334496, “Identification of a Unique Resorcylic Acid Lactone Derivative That Targets Both Lymphangiogenesis and Angiogenesis” (J Med Chem, 2019)
